In patent US11987588B2, “Modulators of the beta-3 adrenergic receptor useful for the treatment or prevention of heart failure and disorders related thereto” (Arena Pharmaceuticals, Inc., priority 2017, dated 2024):

What follows are compounds tested against Beta-3 Adrenergic Receptor (Homo sapiens (Human), UniProt P13945) (assay: Homogeneous Time-Resolved Fluorescence (HTRF) cAMP antagonist assay, IC50 determination). Details: CHO-K1 cells stably expressing recombinant receptor, isoproterenol at EC90.
Assay type: cell-based
Protocol: HTRF cAMP assays were performed according to manufacturer's instructions (Cisbio, cAMP Dynamic 2 Assay Kit; #62AM4PEJ). CHO-K1 cells stably expressing recombinant receptor were harvested and suspended in warm PBS to make a 300,000 cells/mL stock. This cell suspension was dispensed into 384 well assay plates (PerkinElmer ProxiPlate #6008280) at 5 μL per well (1500 cells/well) along with a cAMP standard curve.
Compounds were dissolved and serially diluted (5-fold) in DMSO to generate a 10-point dose response stock. The stock was then diluted 100-fold in assay buffer (PBS containing 1 mM IBMX) before a volume of 2.5 μL was added to the cells (the final, top concentration of compound in the dose-response is typically 10 or 100 μM). After a brief incubation, 2.5 μL of isoproterenol stock, prepared at a concentration 4 times its EC90 at the receptor of interest, was added to the wells. The EC90 for isoproterenol, a beta-adrenergic agonist, was determined in separate experiments using standard methods to measure agonist potencies.
Following a 1-hour incubation at room temperature, 5 μL of cAMP-D2 Reagent diluted in Lysis Buffer was added to each well followed by 5 μL of Cryptate Reagent. Plates were further incubated at room temperature for 1 hour prior to reading. Time resolved fluorescence measurements were collected on a suitable, HTRF-capable plate reader.
Counts from the plate reader were fit to the cAMP standard curve on the assay plate in order to determine cAMP concentrations in each well, and these values were used to construct dose-response curves to obtain IC50 values.

Sequence of Beta-3 Adrenergic Receptor (P13945 whole entry, species assumed): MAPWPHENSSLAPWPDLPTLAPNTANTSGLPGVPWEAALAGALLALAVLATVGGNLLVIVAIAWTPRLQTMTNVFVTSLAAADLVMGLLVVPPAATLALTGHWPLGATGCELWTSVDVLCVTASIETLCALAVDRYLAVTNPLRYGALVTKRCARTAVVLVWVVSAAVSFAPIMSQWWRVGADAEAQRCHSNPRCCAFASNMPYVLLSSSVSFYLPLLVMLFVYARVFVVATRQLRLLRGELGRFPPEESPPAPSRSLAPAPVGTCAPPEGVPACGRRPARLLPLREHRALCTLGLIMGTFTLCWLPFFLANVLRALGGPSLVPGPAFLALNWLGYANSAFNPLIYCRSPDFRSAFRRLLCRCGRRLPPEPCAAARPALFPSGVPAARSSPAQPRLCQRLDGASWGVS

Row | SMILES | IC50
1 | CNS(=O)(=O)c1cccc(OC[C@@H](O)CN[C@H]2COC3(CCN(S(=O)(=O)c4cnc5c(c4)OCCN5)CC3)C2)c1 [Compound 500, 3-((S)-3-((R)-8-(3,4-dihydro-2H-pyrido[3,2-b][1,4]oxazin-7-ylsulfonyl)-1-oxa-8-azaspiro[4.5]decan-3-ylamino)-2-hydroxypropoxy)-N-methylbenzenesulfonamide] | 0.0288 µM
2 | CNS(=O)(=O)c1cccc(OC[C@@H](O)CN[C@H]2COC3(CCN(S(=O)(=O)c4cccc(-c5ccc(CC#N)cc5)c4)CC3)C2)c1 [Compound 294, 3-((S)-3-((R)-8-(4′-(cyanomethyl)biphenyl-3-ylsulfonyl)-1-oxa-8-azaspiro[4.5]decan-3-ylamino)-2-hydroxypropoxy)-N-methylbenzenesulfonamide] | 0.0562 µM
3 | O=S(=O)(NC1CCOCC1)c1cccc(OC[C@@H](O)CNC2COC3(CCN(S(=O)(=O)c4ccc5ccccc5c4)CC3)C2)c1 (stereo partly drawn) [Compound 50, 3-((2S)-2-hydroxy-3-(8-(naphthalen-2-ylsulfonyl)-1-oxa-8-azaspiro[4.5]decan-3-ylamino)propoxy)-N-(tetrahydro-2H-pyran-4-yl)benzenesulfonamide] | 0.0872 µM
4 | CNS(=O)(=O)c1cccc(OC[C@@H](O)CNC2COC3(CCN(S(=O)(=O)c4cccc(-c5ccc(CN[C@@H](CO)C(N)=O)cc5)c4)CC3)C2)c1 (stereo partly drawn) [Compound 345, (2S)-3-hydroxy-2-((3′-(3-((S)-2-hydroxy-3-(3-(N-methylsulfamoyl)phenoxy)propylamino)-1-oxa-8-azaspiro[4.5]decan-8-ylsulfonyl)biphenyl-4-yl)methylamino)propanamide] | 0.107 µM
5 | CN1CCOc2ncc(S(=O)(=O)N3CCC4(CC3)C[C@@H](NC[C@H](O)COc3cccc(S(=O)(=O)NCC#N)c3)CO4)cc21 [Compound 460, N-(cyanomethyl)-3-((S)-2-hydroxy-3-((R)-8-(1-methyl-2,3-dihydro-1H-pyrido[2,3-b][1,4]oxazin-7-ylsulfonyl)-1-oxa-8-azaspiro[4.5]decan-3-ylamino)propoxy)benzenesulfonamide] | 3.02 µM
6 | CCOc1ccc(-c2ccc(CN)cc2)cc1S(=O)(=O)N1CCC2(CC1)C[C@@H](NC[C@H](O)COc1cccc(S(N)(=O)=O)c1)CO2 [Compound 567, 3-((S)-3-((R)-8-(4′-(aminomethyl)-4-ethoxybiphenyl-3-ylsulfonyl)-1-oxa-8-azaspiro[4.5]decan-3-ylamino)-2-hydroxypropoxy)benzenesulfonamide] | 0.0179 µM

The remaining compounds from weak to strong by IC50, led by results:

Row | IC50 | SMILES
7 | 0.429 µM | O=S(=O)(NC1CC(F)(F)C1)c1cccc(OC[C@@H](O)CNC2COC3(CCN(S(=O)(=O)c4ccc5ccccc5c4)CC3)C2)c1 (stereo partly drawn) [Compound 89, N-(3,3-difluorocyclobutyl)-3-((2S)-2-hydroxy-3-(8-(naphthalen-2-ylsulfonyl)-1-oxa-8-azaspiro[4.5]decan-3-ylamino)propoxy)benzenesulfonamide]
8 | 0.262 µM | CNS(=O)(=O)c1cccc(OC[C@@H](O)CN[C@H]2COC3(CCN(S(=O)(=O)c4cc(-c5ccc(CN)cc5)ccc4OC(F)(F)F)CC3)C2)c1 [Compound 416, 3-((S)-3-((R)-8-(4′-(aminomethyl)-4-(trifluoromethoxy)biphenyl-3-ylsulfonyl)-1-oxa-8-azaspiro[4.5]decan-3-ylamino)-2-hydroxypropoxy)-N-methylbenzenesulfonamide]
9 | 0.256 µM | C[C@@H](NS(=O)(=O)c1cccc(OC[C@@H](O)CNC2COC3(CCN(S(=O)(=O)c4ccc5ccccc5c4)CC3)C2)c1)C(C)(C)C (stereo partly drawn) [Compound 100, N—((R)-3,3-dimethylbutan-2-yl)-3-((2S)-2-hydroxy-3-(8-(naphthalen-2-ylsulfonyl)-1-oxa-8-azaspiro[4.5]decan-3-ylamino)propoxy)benzenesulfonamide]
10 | 0.0485 µM | NS(=O)(=O)c1cccc(OC[C@@H](O)CN[C@H]2COC3(CCN(S(=O)(=O)c4ccc5c(c4)CCCC5)CC3)C2)c1 [Compound 556, 3-((S)-2-hydroxy-3-((R)-8-(5,6,7,8-tetrahydronaphthalen-2-ylsulfonyl)-1-oxa-8-azaspiro[4.5]decan-3-ylamino)propoxy)benzenesulfonamide]
